Drawing on US9440941B2, “Substituted chroman-6-yloxy-cycloalkanes and their use as pharmaceuticals” (SANOFI, priority 2013, dated 2016), this text covers inhibition and IC50 for 44 compounds.

Counter-ions that a name gives are not always drawn.

The target of one assay is T1, human NCX1 (Homo sapiens, UniProt P32418).
T1 construct: expressed in transfected cells
In words: Inhibition of Ca2+ influx into cells (NCX1 reverse mode), FLIPR Fluo-4 assay. Type of assay: cell-based. To be noted: at 10 μM; NCX1 reverse mode; IC50 value not determined; read-out: Inhibition in % at 10 μM (NCX1rv). From the text:
The sodium/calcium exchanger NCX1 can transport calcium ions and sodium ions through the cell membrane. The transport is an exchange of Ca^2+ and Na^+ in two directions depending on membrane potential and ion gradients. At the first direction, named “forward mode” or “calcium export mode”, Ca^2+ is transported out of the cell and Na^+ is transported into the cell. At the other direction, named “reverse mode” or “calcium import mode”, the transport directions are vice versa. The effect of the compounds of the invention on NCX1 was determined in CHO cells stably expressing human NCX1 (gene symbol SLC8A1; cf. WO 2009/115238). The assay is based on the monitoring of intracellular Ca^2+ concentrations using a calcium-sensitive fluorescence dye which is detected by means of a FLIPR device (Fluorimetric Imaging Plate Reader, Molecular Devices).
Assay Technology—Reverse Mode
The assay is based on the monitoring of intracellular Ca^2+ concentrations using the calcium-sensitive dye Fluo-4. CHO cells expressing NCX1 were loaded with the dye by means of the acetoxymethyl ester Fluo-4 AM (Invitrogen, F14202), which is cleaved intracellularly by esterase activity to yield the charged species of free Fluo-4. After an preincubation period with the test compound, Gramicidine (Sigma, G5002) was added. Gramicidine is an ionophor for Na^+ ions mediating an increase of intracellular Na^+ ions. Consequently, intracellular Na^+ ions are exchanged against extracellular Ca^2+ ions (Ca^2+ influx, reverse mode). The intracellular elevation of Ca^2+ ions was detected by measuring the fluorescence of Fluo-4 at a wavelength of 520 nm by a FLIPR device.
Briefly, for the reverse mode transport assay 18000 cells per well were seeded into a 96 well microplate (Corning COSTAR 3904) and incubated overnight in culture medium (1× Nut Mix F12 (Ham) (Gibco, 21765-029); 10% (v/v) fetal calf serum (PAA Gold, A15-649); 450 μg/ml Geneticin (Gibco, 10131-027)). A total volume of 100 μl medium per well was used. For the preparation of the FLIPR assay, the culture medium was removed from the plates and 100 μl of dye solution (2 μM Fluo-4 AM; 0.02% (v/v) Pluronic F-127 (20%, Invitrogen, P3000MP); 0.1% (v/v) bovine albumin solution (30% (v/v), Sigma, A9205) in assay buffer (133.8 mM NaCl (Sigma, S5886); 4.7 mM KCl (Sigma, P3911); 1.25 mM MgCl2 (Merck, 1.05833.0250); 3.5 mM CaCl2 (Merck, 1.02083.0250); 5 mM glucose (Sigma, G7021); 10 mM Hepes (Sigma, H4034); 0.01% (v/v) Pluronic F-127 (5%, Sigma, P2443); 2.5 mM Probenecid (Maybridge, SB00915EB); pH 7.4)) were added into each well. The plates were incubated in the dark at room temperature for 80 min. After the incubation period, the dye solution was removed and the wells were washed with 100 μl of assay buffer. Then 80 μl of a solution of the test compound in assay buffer in different concentrations were added into the wells. The plates were incubated at 16° C. for 45 min. Meanwhile a 60 μM solution of Gramicidine in assay buffer (4° C.) was prepared and stored in the wells of a 96 well microplate (96 well microplate, polypropylene, U-shape (Greiner Bio-One, 650201)) at 4° C. until measurement was started. The fluorescence monitoring was performed at 240 measuring points with measurement intervals of 2 sec. After the fifth measuring point, 40 μl of the Gramicidine solution were added to each well of the assay plates to give a final Gramicidine concentration of 20 μM. For the determination of the IC50 values the minimal fluorescence value was subtracted from the maximal fluorescence value for all measuring points. The calculation of the IC50 values via the percentage inhibitions of Ca^2+ influx into cells (reverse mode) effected by the test compound was performed in Biost@t Speed 2.0.
For `Cc1ccccc1C1CCc2cc(OC3CCC(NCCCC4CCOC4)CC3)ccc2O1` (centres unmarked) [compound 198], the inhibition (usually the percentage by which the read-out fell short of the control) at 10 µM turned out to be 97%. The same measure, in the same setting: the result for `CCOCCCNC1CCC(Oc2ccc3c(c2)CCC(c2ccccc2C)O3)CC1` (centres unmarked) [compound 201] reads 98%.

The assay is the same for the next values; noted with them: at 10 μM; NCX1 reverse mode; IC50 value not determined; read-out: NCX1rv inhibition in % at 10 μM.
Consider `CSCCNC1CCC(Oc2ccc3c(c2)CCC(c2ccccc2C)O3)CC1` (centres unmarked) [compound 192], for which the inhibition at 10 µM came out at 98%.

The same assay, now with this note: inhibition of NCX1 in reverse mode (Ca2+ influx into cells); read-out: NCX1rv IC50.
As for `Cc1ccccc1C1CCc2cc(OC3CCC(NC4CCS(=O)(=O)C4)CC3)ccc2O1` (centres unmarked) [compound 206], the IC50 (usually the point on the concentration scale where inhibition reaches its midpoint) is 1100 nM. Still for that read-out and setting: for `c1ccc(C2CCc3cc(OC4CCC(NCCC5CCOCC5)CC4)ccc3O2)cc1` (centres unmarked) [compound 120] the value was 800 nM; for `Cc1ccccc1C1CCc2cc(OC3CCC(NC4CCCC4)CC3)ccc2O1` (centres unmarked) [compound 204], 1900 nM. Same read-out and setting: the result for `COc1c(F)cccc1C1CCc2cc(OC3CCC(C(=O)NCc4ccno4)CC3)ccc2O1` (centres unmarked) [compound 301] reads 200 nM; that for `Cn1cc(Cl)c(CN(Cc2nn(C)cc2Cl)[C@H]2CC[C@H](Oc3ccc4c(c3)CCC(c3ccccc3)O4)CC2)n1` (stereo partly drawn) [compound 81, N,N-Bis(4-chloro-1-methyl-pyrazol-3-ylmethyl)-[trans-4-(2-phenylchroman-6-yloxy)]-cyclohexylamine], 4000 nM; that for `OC1CCC(Oc2ccc3c(c2)CCC(c2ccccc2)O3)CC1` (centres unmarked) [compound 74, 4-(2-Phenylchroman-6-yloxy)cyclohexanol], 300 nM. For `CSC(C)CCN[C@H]1CC[C@H](Oc2ccc3c(c2)CCC(c2ccccc2)O3)CC1` (stereo partly drawn) [compound 64, N-(3-Methylsulfanylbutyl)-[trans-4-(2-phenylchroman-6-yloxy)]-cyclohexylamine], the IC50 came to 500 nM.

For `CCCNC1CCC(Oc2ccc3c(c2)CCC(c2ccccc2)O3)CC1` (centres unmarked) [compound 113], the IC50 was found to be 500 nM. The same measure, in the same setting: for `O=C(CC1CC1)N[C@H]1CC[C@H](Oc2ccc3c(c2)CCC(c2ccccc2)O3)CC1` (relative stereo) [compound 27] the value was 200 nM; for `CCCC1(N)CCC(Oc2ccc3c(c2)CCC(c2ccccc2)O3)CC1` (centres unmarked) [compound 17, hydrochloride], 1000 nM.

On to `O=C(N[C@H]1CC[C@H](Oc2ccc3c(c2)CCC(c2ccccc2)O3)CC1)c1ccncc1F` (relative stereo) [compound 31], for which the IC50 came to 100 nM. On the same count and under the same terms, the result for `Cc1c(F)cccc1C1CCc2cc(OC3CCC(C(=O)NC4CCCC4O)CC3)ccc2O1` (single isomer, unassigned; stereoisomer 2) [compound 280, 4-[2-(3-Fluoro-2-methyl-phenyl)chroman-6-yloxy]-N-(2-hydroxycyclopentyl)cyclohexane-carboxamide, stereoisomer 2 (2)] reads 100 nM; that for `Fc1ccccc1C1CCc2cc(OC3CCC(NCCCOC4CCCC4)CC3)ccc2O1` (centres unmarked) [compound 229], 6000 nM. The same measure, in the same setting: the result for `CC(C)(C)OCCCNC1CCC(Oc2ccc3c(c2)CCC(c2ccccc2)O3)CC1` (centres unmarked) [compound 122] reads 1200 nM. For “N-(3-Methylbutyl)-4-(2-phenylchroman-6-yloxy)-cyclohexylamine [compound 130]”, the IC50 worked out at 800 nM. Still for that read-out and setting: the result for `CC(C)(C)CNC1CCC(Oc2ccc3c(c2)CCC(c2ccccc2)O3)CC1` (centres unmarked) [compound 162, N-(2,2-Dimethylpropyl)-4-(2-phenylchroman-6-yloxy)-cyclohexylamine] reads 2300 nM; that for `N[C@@H](CO)C(=O)N[C@H]1CC[C@H](Oc2ccc3c(c2)CCC(c2ccccc2)O3)CC1` (some centres unmarked) [compound 181, hydrochloride], 300 nM.

Consider `COCCNC1CCC(Oc2ccc3c(c2)CCC(c2ccccc2F)O3)CC1` (centres unmarked) [compound 214], for which the IC50 stood at 1600 nM. Same read-out and setting: the result for `Cc1cc(C(=O)N[C@H]2CC[C@H](Oc3ccc4c(c3)CCC(c3ccccc3F)O4)CC2)n[nH]1` (relative stereo) [compound 261] reads 300 nM; that for `CC(=O)N[C@H]1CC[C@H](Oc2ccc3c(c2)CCC(c2ccccc2)O3)CC1` (relative stereo) [compound 7], 300 nM. Same read-out and setting: the result for `CC(CN(C)C)NC1CCC(Oc2ccc3c(c2)CCC(c2ccccc2)O3)CC1` (centres unmarked) [compound 128] reads 1700 nM; that for `Cc1ccccc1C1CCc2cc(OC3CCC(NCCN4CCSCC4)CC3)ccc2O1` (centres unmarked) [compound 209], 3200 nM.

In the case of `CNS(=O)(=O)CCNC(=O)C1CCC(Oc2ccc3c(c2)CCC(c2cccc(F)c2C)O3)CC1` (centres unmarked) [compound 275], the IC50 amounted to 400 nM. The same measure, in the same setting: for `N[C@H]1C[C@@H](Oc2ccc3c(c2)CCC(c2ccccc2)O3)C1` (relative stereo) [compound 306, hydrochloride] the value was 1600 nM; for `CC1Cc2cc(OC3CCC(C(=O)NCCO)CC3)ccc2OC1c1ccccc1` (centres unmarked) [compound 299], 1900 nM; for `CCn1nccc1CNC(=O)C1CCC(Oc2cc3c(cc2C)OC(c2ccccc2C)CC3)CC1` (centres unmarked) [compound 290], 1500 nM. As to `Cc1cc2c(cc1OC1CCC(C(=O)NCCO)CC1)CCC(c1ccccc1C)O2` (centres unmarked) [compound 288], the half-inhibitory concentration (IC50) was determined as 1900 nM. For `CN(C)C(=O)NC1CCC(Oc2ccc3c(c2)CCC(c2ccccc2)O3)CC1` (centres unmarked) [compound 16], the IC50 was found to be 1300 nM.

In the case of `O=C(Cn1cccn1)N[C@H]1CC[C@H](Oc2ccc3c(c2)CCC(c2ccccc2)O3)CC1` (relative stereo) [compound 24], the IC50 was 300 nM. For the compound `O=C(NCc1ccnc(Cl)c1)C1CCC(Oc2ccc3c(c2)CCC(c2ccccc2F)O3)CC1` (centres unmarked) [compound 184], the IC50 worked out at 1300 nM.

With `c1ccc(C2CCc3cc(OC4CCC(NC5CC5)CC4)ccc3O2)cc1` (centres unmarked) [compound 123], the IC50 worked out at 1000 nM. `O=C(CC1CC1)N[C@H]1CC[C@H](Oc2ccc3c(c2)CCC(c2ccccc2F)O3)CC1` (relative stereo) [compound 252]: the IC50 was 300 nM. Still for that read-out and setting: the result for `Cc1ccccc1C1CCc2cc(O[C@H]3CC[C@@H](CNC(=O)CN)CC3)ccc2O1` (relative stereo) [compound 185, hydrochloride] reads 600 nM; that for `CC(C)OCCCNC1CCC(Oc2ccc3c(c2)CCC(c2ccccc2F)O3)CC1` (centres unmarked) [compound 225], 3900 nM; that for `Cc1ccccc1C1CCc2cc(OC3CCC(NCC4CCOCC4)CC3)ccc2O1` (centres unmarked) [compound 208], 3000 nM. On the same count and under the same terms, the result for `CC(C)CCCNC1CCC(Oc2ccc3c(c2)CCC(c2ccccc2)O3)CC1` (centres unmarked) [compound 107] reads 800 nM; that for `Cc1nc(CNC(=O)[C@H]2CC[C@@H](Oc3ccc4c(c3)CCC(c3ccccc3)O4)CC2)no1` (single isomer, unassigned; stereoisomer 1) [compound 95, N-(5-Methyl-[1,2,4]oxadiazol-3-ylmethyl)-[4-cis-(2-phenylchroman-6-yloxy)]-cyclohexanecarboxamide, stereoisomer 1 (2)], 200 nM. In the case of `c1ccc(C2CCc3cc(OC4CCC(NCc5ccoc5)CC4)ccc3O2)cc1` (centres unmarked) [compound 103], the IC50 was found to be 800 nM.

For the compound `O=C(NCCO)C1CCC(Oc2ccc3c(c2)CC[C@@H](c2ccccc2)O3)CC1` (stereo partly drawn) [compound 102, N-(2-Hydroxyethyl)-4-((S)-2-phenylchroman-6-yloxy)-cyclohexanecarboxamide], the IC50 was found to be 1100 nM.

With `COC[C@H](C)NC1CCC(Oc2ccc3c(c2)CCC(c2ccccc2F)O3)CC1` (some centres unmarked) [compound 221], the IC50 turned out to be 2300 nM. In the case of `O=C(N[C@H]1CC[C@H](Oc2ccc3c(c2)CCC(c2ccccc2F)O3)CC1)C1CCC1` (some centres unmarked) [compound 244], the half-inhibitory concentration (IC50) turned out to be 100 nM.
